{
  "source": "ChEMBL document CHEMBL5537122",
  "about": "“Design, synthesis, and biological evaluation of 4-(2-fluorophenoxy)-7-methoxyquinazoline derivatives as dual EGFR/c-Met inhibitors for the treatment of NSCLC” (Eur J Med Chem, 2024)",
  "key": {"[1]": {"assay": "Toxicity in BALB/c nude mouse xenografted with human A549 cells overexpressing c-MET assessed as change in body weight at 40 to 60 mg/kg, IG and measured for 24 days", "format": "organism-based", "details": "in vivo, po, 576 h, dose 40-60 mg/kg, time 24 day"}, "PC-9": {"tested_on": "PC-9", "assay": "Antimigratory activity against EGF-induced cell migration in serum starved human PC-9 cells assessed as increase in width of artificial gap incubated for 24 hrs by wound healing assay", "format": "functional, cell-based", "details": "dose 1-2.5 µM"}, "[2]": {"assay": "Acute toxicity in KM mouse assessed as cell damage or necrosis in kidney at 100 mg/kg, IG qa administered for 7 days and measured on day 8 by hematoxylin and eosin staining based assay", "format": "organism-based", "details": "in vivo, po, 192 h, time 8 day"}, "[3]": {"tested_on": "Epidermal growth factor receptor (Homo sapiens), P00533 [L858R]", "sequence (P00533 whole entry L858R)": "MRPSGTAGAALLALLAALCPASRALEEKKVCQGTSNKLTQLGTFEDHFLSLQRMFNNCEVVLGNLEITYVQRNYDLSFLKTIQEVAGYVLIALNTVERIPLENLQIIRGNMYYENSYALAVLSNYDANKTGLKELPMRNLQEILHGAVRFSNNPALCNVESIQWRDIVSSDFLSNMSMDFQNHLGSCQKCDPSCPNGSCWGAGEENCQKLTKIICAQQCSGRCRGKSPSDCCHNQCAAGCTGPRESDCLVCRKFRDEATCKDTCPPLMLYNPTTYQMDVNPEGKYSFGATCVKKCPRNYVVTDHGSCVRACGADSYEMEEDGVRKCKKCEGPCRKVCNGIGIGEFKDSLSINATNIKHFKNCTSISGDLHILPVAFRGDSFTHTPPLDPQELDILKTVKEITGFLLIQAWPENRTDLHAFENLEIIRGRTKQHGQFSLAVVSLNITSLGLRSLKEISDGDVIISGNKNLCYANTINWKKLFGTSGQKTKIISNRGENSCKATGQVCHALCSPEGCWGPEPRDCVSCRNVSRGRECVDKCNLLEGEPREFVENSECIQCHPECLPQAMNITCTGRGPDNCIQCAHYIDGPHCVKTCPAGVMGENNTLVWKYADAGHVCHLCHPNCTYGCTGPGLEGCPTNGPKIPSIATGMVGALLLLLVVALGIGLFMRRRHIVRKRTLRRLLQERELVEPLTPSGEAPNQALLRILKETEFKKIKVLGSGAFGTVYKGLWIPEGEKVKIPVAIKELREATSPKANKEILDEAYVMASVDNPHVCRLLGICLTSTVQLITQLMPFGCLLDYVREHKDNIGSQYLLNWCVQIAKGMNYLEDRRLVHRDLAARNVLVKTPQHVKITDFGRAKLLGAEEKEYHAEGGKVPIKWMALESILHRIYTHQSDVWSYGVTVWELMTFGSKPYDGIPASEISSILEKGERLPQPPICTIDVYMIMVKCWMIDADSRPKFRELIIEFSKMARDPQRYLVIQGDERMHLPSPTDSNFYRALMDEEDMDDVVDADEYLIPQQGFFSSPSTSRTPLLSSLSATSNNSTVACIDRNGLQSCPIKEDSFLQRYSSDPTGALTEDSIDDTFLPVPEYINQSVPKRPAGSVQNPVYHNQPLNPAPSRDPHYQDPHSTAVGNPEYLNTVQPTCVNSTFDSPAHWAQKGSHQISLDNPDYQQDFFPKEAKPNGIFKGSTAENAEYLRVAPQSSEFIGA", "assay": "Inhibition of EGFR L858R mutant (unknown origin) at 10 uM relative to control"}, "A549 [4]": {"tested_on": "A549", "assay": "Induction in apoptosis in human A549 cells overexpressing c-MET assessed as early apoptotic cells at 2.5 uM incubated for 24 hrs by Annexin V-FITC/Propidium Iodide staining based flow cytometry analysis (reference value: 7.27 %)", "format": "functional"}, "A549 [5]": {"tested_on": "A549", "assay": "Downregulation of phosphorylated Akt expression level human A549 cells overexpressing c-MET incubated for 24 hrs by Western blotting analysis", "format": "functional, cell-based", "details": "dose 0.2-10 µM"}, "A549 [6]": {"tested_on": "A549", "assay": "Induction in apoptosis in human A549 cells overexpressing c-MET assessed as late apoptotic cells at 1 uM incubated for 24 hrs by Annexin V-FITC/Propidium Iodide staining based flow cytometry analysis (reference value: 7.59 %)", "format": "functional"}, "[7]": {"target": "Epidermal growth factor receptor (Homo sapiens, UniProt P00533, L858R)", "sequence (P00533 25-1210 L858R limits assumed)": "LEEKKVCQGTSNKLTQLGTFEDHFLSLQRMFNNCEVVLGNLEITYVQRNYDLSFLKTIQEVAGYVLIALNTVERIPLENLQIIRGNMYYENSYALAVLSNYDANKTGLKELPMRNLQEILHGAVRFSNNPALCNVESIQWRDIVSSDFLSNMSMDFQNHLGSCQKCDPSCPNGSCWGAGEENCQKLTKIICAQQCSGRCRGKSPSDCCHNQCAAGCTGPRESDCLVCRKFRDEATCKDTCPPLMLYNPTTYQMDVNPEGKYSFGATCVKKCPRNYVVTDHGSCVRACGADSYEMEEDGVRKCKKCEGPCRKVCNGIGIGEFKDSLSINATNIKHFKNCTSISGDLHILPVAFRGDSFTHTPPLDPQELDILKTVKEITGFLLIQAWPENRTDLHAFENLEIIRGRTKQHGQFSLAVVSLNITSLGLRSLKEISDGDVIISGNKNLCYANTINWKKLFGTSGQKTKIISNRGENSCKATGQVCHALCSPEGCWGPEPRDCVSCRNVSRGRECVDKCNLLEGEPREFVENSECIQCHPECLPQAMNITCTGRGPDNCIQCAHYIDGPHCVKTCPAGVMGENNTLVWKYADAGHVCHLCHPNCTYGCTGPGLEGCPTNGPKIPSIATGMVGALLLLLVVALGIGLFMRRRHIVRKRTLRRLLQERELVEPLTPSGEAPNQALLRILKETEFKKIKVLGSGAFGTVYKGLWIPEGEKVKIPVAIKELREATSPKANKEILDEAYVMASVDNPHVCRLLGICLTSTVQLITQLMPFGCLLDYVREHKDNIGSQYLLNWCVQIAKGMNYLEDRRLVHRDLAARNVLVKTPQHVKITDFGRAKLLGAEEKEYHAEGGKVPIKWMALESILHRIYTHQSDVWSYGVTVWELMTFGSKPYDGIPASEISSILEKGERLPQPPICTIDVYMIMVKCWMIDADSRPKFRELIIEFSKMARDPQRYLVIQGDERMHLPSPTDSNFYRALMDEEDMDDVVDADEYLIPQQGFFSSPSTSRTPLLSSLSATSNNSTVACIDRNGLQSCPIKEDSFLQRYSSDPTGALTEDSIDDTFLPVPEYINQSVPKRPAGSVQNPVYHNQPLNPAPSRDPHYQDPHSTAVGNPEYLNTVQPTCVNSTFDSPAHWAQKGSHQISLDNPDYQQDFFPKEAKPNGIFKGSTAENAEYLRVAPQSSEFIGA", "assay": "biochemical"}, "[8]": {"assay": "Acute toxicity in KM mouse assessed as cell damage or necrosis in lung at 100 mg/kg, IG qa administered for 7 days and measured on day 8 by hematoxylin and eosin staining based assay", "format": "organism-based", "details": "in vivo, po, 192 h, time 8 day"}, "A549 [9]": {"tested_on": "A549", "assay": "Induction of apoptosis in human A549 cells overexpressing c-MET assessed as reduction in red fluorescence intensity incubated for 24 hrs by JC-1 staining based fluorescence inverted microscopic analysis", "format": "functional, cell-based", "details": "dose 1-2.5 µM"}, "[10]": {"assay": "Hepatotoxicity in KM mouse assessed as alkaline phosphatase level at 100 mg/kg, IG qd administered for 7 days by automatic biochemical analyzer", "format": "toxicity, organism-based", "details": "in vivo, po, 168 h, time 7 day"}, "Homo sapiens": {"organism": "Homo sapiens", "assay": "Inhibition of EGFR T790/C797S mutant (unknown origin) at 10 uM"}, "A549 [11]": {"tested_on": "A549", "assay": "Induction in apoptosis in human A549 cells overexpressing c-MET assessed as late apoptotic cells at 2.5 uM incubated for 24 hrs by Annexin V-FITC/Propidium Iodide staining based flow cytometry analysis (reference value: 7.59 %)", "format": "functional"}, "A549 [12]": {"tested_on": "A549", "assay": "Induction of cell cycle arrest in human A549 cells overexpressing c-MET assessed as accumulation of cells at G1/G0 phase at 2.5 uM incubated for 24 hrs by RNase A/propidium iodide staining based flow cytometric analysis (reference value: 49.24 %)", "format": "functional"}, "A549 [13]": {"tested_on": "A549", "assay": "Antitumor activity against human A549 cells overexpressing c-MET xenografted in BALB/c nude mouse assessed as tumor growth inhibition at 60 mg/kg, IG qod measured for 24 days relative to control", "format": "functional", "details": "A549, po, 576 h, time 24 day, read-out: TGI"}, "A549 [14]": {"tested_on": "A549", "assay": "Downregulation of phosphorylated c-Met protein expression human A549 cells overexpressing c-MET incubated for 24 hrs by Western blotting analysis", "format": "functional, cell-based", "details": "dose 1-10 µM"}, "A549 [15]": {"tested_on": "A549", "assay": "Induction of cell cycle arrest in human A549 cells overexpressing c-MET assessed as accumulation of cells at G1/G0 phase at 1 uM incubated for 24 hrs by RNase A/propidium iodide staining based flow cytometric analysis (reference value: 49.24 %)", "format": "functional"}, "[16]": {"assay": "Hemolytic activity in sheep erythrocytes at 128 ug/ml incubated for 2 hr by UV spectrophotometer relative to control", "format": "toxicity, cell-based, Ovis aries, Erythrocyte", "details": "at 128 µg/mL, read-out: Activity"}, "A549 [17]": {"tested_on": "A549", "assay": "Antimigratory activity against EGF-induced cell migration in serum starved human A549 cells overexpressing c-MET assessed as increase in width of artificial gap incubated for 24 hrs by wound healing assay", "format": "functional, cell-based", "details": "dose 1-2.5 µM"}, "[18]": {"assay": "Hepatotoxicity in KM mouse assessed as effect on alanine aminotransferase level at 100 mg/kg, IG qd administered for 7 days by automatic biochemical analyzer", "format": "toxicity, organism-based", "details": "in vivo, po, 168 h, time 7 day"}, "[19]": {"target": "Fibroblast growth factor receptor 1 (Homo sapiens) (UniProt P11362)", "sequence (P11362 22-822 limits assumed)": "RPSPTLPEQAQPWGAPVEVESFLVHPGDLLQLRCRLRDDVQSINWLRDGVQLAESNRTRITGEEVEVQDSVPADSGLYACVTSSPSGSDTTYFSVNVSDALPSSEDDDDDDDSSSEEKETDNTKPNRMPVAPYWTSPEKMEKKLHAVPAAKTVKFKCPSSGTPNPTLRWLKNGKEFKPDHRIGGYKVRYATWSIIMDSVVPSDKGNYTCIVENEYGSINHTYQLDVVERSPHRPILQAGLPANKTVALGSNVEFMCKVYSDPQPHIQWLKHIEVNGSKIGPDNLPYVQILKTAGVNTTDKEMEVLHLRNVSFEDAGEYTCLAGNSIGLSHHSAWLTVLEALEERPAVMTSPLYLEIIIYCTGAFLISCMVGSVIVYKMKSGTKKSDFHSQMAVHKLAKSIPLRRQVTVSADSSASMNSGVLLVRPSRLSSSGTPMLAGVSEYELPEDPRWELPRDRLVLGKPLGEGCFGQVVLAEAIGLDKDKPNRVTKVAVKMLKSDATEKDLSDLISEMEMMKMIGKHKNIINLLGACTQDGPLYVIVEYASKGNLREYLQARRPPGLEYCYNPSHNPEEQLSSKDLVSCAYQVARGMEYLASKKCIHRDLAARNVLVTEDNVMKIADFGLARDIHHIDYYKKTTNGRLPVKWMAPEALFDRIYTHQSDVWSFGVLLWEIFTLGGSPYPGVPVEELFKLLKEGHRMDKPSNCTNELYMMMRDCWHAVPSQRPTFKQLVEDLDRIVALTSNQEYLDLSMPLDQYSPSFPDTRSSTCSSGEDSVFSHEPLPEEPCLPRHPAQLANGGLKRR", "assay": "Inhibition of FGFR1 (unknown origin) at 10 uM"}, "[20]": {"target": "Macrophage-stimulating protein receptor (Homo sapiens) (UniProt Q04912)", "sequence (Q04912 25-304 limits assumed)": "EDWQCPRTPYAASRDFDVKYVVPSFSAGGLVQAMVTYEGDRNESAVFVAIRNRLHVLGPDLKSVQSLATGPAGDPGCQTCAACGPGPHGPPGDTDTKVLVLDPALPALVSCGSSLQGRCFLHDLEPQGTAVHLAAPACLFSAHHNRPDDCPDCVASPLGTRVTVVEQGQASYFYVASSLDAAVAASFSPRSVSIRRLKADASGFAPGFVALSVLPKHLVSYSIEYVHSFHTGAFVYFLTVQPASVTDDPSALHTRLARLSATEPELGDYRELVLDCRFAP", "sequence (Q04912 310-1400 limits assumed)": "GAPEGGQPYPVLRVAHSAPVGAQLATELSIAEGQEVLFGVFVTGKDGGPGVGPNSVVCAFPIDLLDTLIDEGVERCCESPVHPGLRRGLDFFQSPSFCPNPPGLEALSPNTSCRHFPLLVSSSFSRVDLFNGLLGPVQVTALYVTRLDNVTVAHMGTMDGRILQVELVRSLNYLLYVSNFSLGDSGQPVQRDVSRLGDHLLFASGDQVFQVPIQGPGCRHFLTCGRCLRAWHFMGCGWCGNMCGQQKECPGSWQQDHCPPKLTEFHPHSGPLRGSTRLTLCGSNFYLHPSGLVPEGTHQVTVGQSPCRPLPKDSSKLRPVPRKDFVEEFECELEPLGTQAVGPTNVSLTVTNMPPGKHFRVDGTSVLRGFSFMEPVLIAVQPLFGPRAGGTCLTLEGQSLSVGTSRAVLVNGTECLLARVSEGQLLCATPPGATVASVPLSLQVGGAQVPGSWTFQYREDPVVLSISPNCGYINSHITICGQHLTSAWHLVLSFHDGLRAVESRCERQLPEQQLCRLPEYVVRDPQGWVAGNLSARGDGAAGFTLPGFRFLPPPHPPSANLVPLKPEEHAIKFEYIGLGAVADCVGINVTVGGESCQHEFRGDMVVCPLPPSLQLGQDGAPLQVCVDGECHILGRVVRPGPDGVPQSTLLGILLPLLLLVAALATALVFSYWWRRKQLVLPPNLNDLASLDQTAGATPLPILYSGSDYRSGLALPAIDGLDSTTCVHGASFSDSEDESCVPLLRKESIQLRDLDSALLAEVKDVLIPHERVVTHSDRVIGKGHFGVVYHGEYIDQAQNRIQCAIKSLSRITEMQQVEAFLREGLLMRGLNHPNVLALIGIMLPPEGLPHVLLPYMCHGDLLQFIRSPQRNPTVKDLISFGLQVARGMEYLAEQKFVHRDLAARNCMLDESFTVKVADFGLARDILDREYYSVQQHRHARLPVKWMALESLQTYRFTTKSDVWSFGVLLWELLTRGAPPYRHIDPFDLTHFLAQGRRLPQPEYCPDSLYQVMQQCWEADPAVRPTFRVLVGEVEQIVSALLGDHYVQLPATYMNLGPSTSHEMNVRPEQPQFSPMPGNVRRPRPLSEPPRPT", "assay": "Inhibition of RON (unknown origin) at 10 uM"}, "[21]": {"assay": "Induction in apoptosis in human L02 cells assessed as viable cells at 1 uM incubated for 24 hrs by Annexin V-FITC/Propidium Iodide staining based flow cytometry analysis (reference value: 92.75 %)", "format": "toxicity, cell-based", "details": "read-out: Activity"}, "A549 [22]": {"tested_on": "A549", "assay": "Inhibition of colony formation in human A549 cells overexpressing c-MET preincubated for 48 hrs followed by media replacement for every 2 days for 14 days by crystal violet staining based microscopic analysis", "format": "functional, cell-based", "details": "dose 0.25-2 µM"}, "[23]": {"assay": "Nephrotoxicity in KM mouse assessed as effect on urea level at 100 mg/kg, IG qd administered for 7 days by automatic biochemical analyzer", "format": "toxicity, organism-based", "details": "in vivo, po, 168 h, time 7 day"}, "NCI-H1975 [24]": {"tested_on": "NCI-H1975", "assay": "Inhibition of colony formation in human NCI-H1975 cells preincubated for 48 hrs followed by media replacement for every 2 days for 14 days by crystal violet staining based microscopic analysis", "format": "functional, cell-based", "details": "dose 0.25-2 µM"}, "A549 [25]": {"tested_on": "A549", "assay": "Antiproliferative activity against human A549 cells overexpressing c-Met and EGFR assessed as reduction in cell viability incubated for 72 hrs by MTT assay", "format": "functional, cell-based", "details": "A549, 72 h"}, "A549 [26]": {"tested_on": "A549", "assay": "Induction of cell cycle arrest in human A549 cells overexpressing c-MET assessed as accumulation of cells at S phase at 1 uM incubated for 24 hrs by RNase A/propidium iodide staining based flow cytometric analysis (reference value: 37.87 %)", "format": "functional"}, "A549 [27]": {"tested_on": "A549", "assay": "Antitumor activity against human A549 cells overexpressing c-MET xenografted in BALB/c nude mouse assessed as reduction in tumor volume at 60 mg/kg, IG qod measured for 24 days", "format": "functional, organism-based", "details": "time 24.0 day"}, "A549 [28]": {"tested_on": "A549", "assay": "Induction in apoptosis in human A549 cells overexpressing c-MET assessed as necrotic cells at 1 uM incubated for 24 hrs by Annexin V-FITC/Propidium Iodide staining based flow cytometry analysis (reference value: 3.22 %)", "format": "functional"}, "NCI-H1975 [29]": {"tested_on": "NCI-H1975", "assay": "Inhibition of colony formation in human NCI-H1975 cells at 2 uM preincubated for 48 hrs followed by media replacement for every 2 days for 14 days by crystal violet staining based microscopic analysis relative to control", "format": "functional"}, "[30]": {"target": "Proto-oncogene tyrosine-protein kinase receptor Ret (Homo sapiens) (UniProt P07949)", "assay": "Inhibition of RET (unknown origin) at 10 uM"}, "[31]": {"assay": "Cardiotoxicity in KM mouse assessed as effect on lactate dehydrogenase level at 100 mg/kg, IG qd administered for 7 days by automatic biochemical analyzer", "format": "toxicity, organism-based", "details": "in vivo, po, 168 h, time 7 day"}, "NCI-H1975 [32]": {"tested_on": "NCI-H1975", "assay": "Antimigratory activity against EGF-induced cell migration in serum starved human NCI-H1975 cells assessed as increase in width of artificial gap incubated for 24 hrs by wound healing assay", "format": "functional, cell-based", "details": "dose 1-2.5 µM"}},
  "note": "Activity calls are given as the source filed them. No cut-off for these calls is given here.",
  "data": [
    {"smiles": "C=CC(=O)Nc1cc2c(Oc3ccc(NC(=O)n4c(=O)c(-c5ccccc5)c(C)n4C)cc3F)cccc2cc1OC", "values": [
      {"measurement": "Activity", "setting": "[1]", "result": "Non-Toxic"},
      {"measurement": "Activity", "setting": "PC-9", "result": "Dose-Dependent Effect"},
      {"measurement": "Activity", "setting": "[2]", "result": "Non-Toxic"},
      {"measurement": "inhibition", "setting": "[3]", "result": "> 90", "unit": "%"},
      {"measurement": "Activity", "setting": "A549 [4]", "result": 10.44, "unit": "%"},
      {"measurement": "Activity", "setting": "A549 [5]", "result": "Dose-Dependent Effect"},
      {"measurement": "Activity", "setting": "A549 [6]", "result": 12.12, "unit": "%"},
      {"measurement": "IC50", "setting": "[7]", "result": 68.1, "unit": "nM"},
      {"measurement": "Activity", "setting": "[8]", "result": "Non-Toxic"},
      {"measurement": "Activity", "setting": "A549 [9]", "result": "Dose-Dependent Effect"},
      {"measurement": "Activity", "setting": "[10]", "result": "> 60", "unit": "U/L"},
      {"measurement": "inhibition", "setting": "Homo sapiens", "result": "inactive"},
      {"measurement": "Activity", "setting": "A549 [11]", "result": 22.82, "unit": "%"},
      {"measurement": "Activity", "setting": "A549 [12]", "result": 57.29, "unit": "%"},
      {"measurement": "inhibition in vivo at 60 mg/kg", "setting": "A549 [13]", "result": 55.3, "unit": "%"},
      {"measurement": "Activity", "setting": "A549 [14]", "result": "Dose-Dependent Effect"},
      {"measurement": "Activity", "setting": "A549 [15]", "result": 53.03, "unit": "%"},
      {"measurement": "hemolysis at 2 h, 128 ug/ml", "setting": "[16]", "result": 5, "unit": "%"},
      {"measurement": "Activity", "setting": "A549 [17]", "result": "Dose-Dependent Effect"},
      {"measurement": "Activity", "setting": "[18]", "result": "Non-Toxic"},
      {"measurement": "inhibition", "setting": "[19]", "result": "inactive"},
      {"measurement": "inhibition", "setting": "[20]", "result": "Active"},
      {"measurement": "viability at 24 h, 1 µM", "setting": "[21]", "result": 91.9, "unit": "%"},
      {"measurement": "inhibition", "setting": "A549 [22]", "result": "Dose-Dependent Effect"},
      {"measurement": "Activity", "setting": "[23]", "result": "Non-Toxic"},
      {"measurement": "inhibition", "setting": "NCI-H1975 [24]", "result": "Dose-Dependent Effect"},
      {"measurement": "IC50", "setting": "A549 [25]", "result": 1060, "unit": "nM"},
      {"measurement": "Activity", "setting": "A549 [26]", "result": 35.49, "unit": "%"},
      {"measurement": "Activity", "setting": "A549 [27]", "result": "Active"},
      {"measurement": "Activity", "setting": "A549 [28]", "result": 6.61, "unit": "%"},
      {"measurement": "inhibition at 2 µM", "setting": "NCI-H1975 [29]", "result": "~100", "unit": "%"},
      {"measurement": "inhibition", "setting": "[30]", "result": "inactive"},
      {"measurement": "Activity", "setting": "[31]", "result": "Non-Toxic"},
      {"measurement": "Activity", "setting": "NCI-H1975 [32]", "result": "Dose-Dependent Effect"}
    ]}
  ]
}
